US9302999B2, “Substituted triazoles as herbicides” (E. I. DU PONT DE NEMOURS AND COMPANY, priority 2012, dated 2016)

Assays:
Format in all cases: in vivo
[1] = test system: barnyardgrass (Echinochloa crus-galli); assay: Test A pre-/postemergence: barnyardgrass; conditions: for Barnyardgrass plant response rating: Postemergence; for Plant response rating, Barnyardgrass: Preemergence
How it was run: (§1)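 Injury was scored visually on a 0 (no effect) to 100 (complete control) scale versus untreated controls roughly ten days after treatment in the greenhouse. Compounds, formulated in surfactant-containing non-phytotoxic solvent, went on as soil-directed preemergence spray or postemergence to one- to two-leaf plants 2–10 cm tall.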

[2] = test system: crabgrass, large (large crabgrass, Digitaria sanguinalis); assay: Test A pre-/postemergence: crabgrass, large; conditions: for Crabgrass, Large plant response rating: Postemergence; for Plant response rating, Crabgrass, Large: Preemergence
How it was run: as §1

[3] = test system: foxtail, giant (giant foxtail, Setaria faberii); assay: Test A pre-/postemergence: foxtail, giant; conditions: for Foxtail, Giant plant response rating: Postemergence; for Plant response rating, Foxtail, Giant: Preemergence
How it was run: as §1

[4] = test system: morningglory (Ipomoea spp.); assay: Test A pre-/postemergence: morningglory; conditions: for Morningglory plant response rating: Postemergence; for Plant response rating, Morningglory: Preemergence
How it was run: as §1

[5] = test system: pigweed (Amaranthus retroflexus); assay: Test A pre-/postemergence: pigweed; conditions: for Pigweed plant response rating: Postemergence; for Plant response rating, Pigweed: Preemergence
How it was run: as §1

[6] = test system: velvetleaf (Abutilon theophrasti); assay: Test A pre-/postemergence: velvetleaf; conditions: for Velvetleaf plant response rating: Postemergence; for Plant response rating, Velvetleaf: Preemergence
How it was run: as §1

[7] = test system: wheat (Triticum aestivum); assay: Test A pre-/postemergence: wheat; conditions: for Wheat plant response rating: Postemergence; for Plant response rating, Wheat: Preemergence
How it was run: as §1

corn (Zea mays) = assay: Test A pre-/postemergence: corn; conditions: for Corn plant response rating: Postemergence; for Plant response rating, Corn: Preemergence
How it was run: as §1

rice (Oryza sativa) = assay: Test C flooded paddy test: rice; conditions: scale 0 to 100 (0 no effect, 100 complete control)
How it was run: (§2)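 Visual ratings from 0 (no effect) to 100 (complete control), made against untreated controls 13 to 15 days after treatment, express plant response. Compounds went directly into paddy water over 2-leaf stage plants in pots flooded to 3 cm.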

[8] = test system: sedge, umbrella (small-flower umbrella sedge, Cyperus difformis); assay: Test C flooded paddy test: sedge, umbrella; conditions: scale 0 to 100 (0 no effect, 100 complete control)
How it was run: as §2

[9] = test system: ducksalad (Heteranthera limosa); assay: Test C flooded paddy test: ducksalad; conditions: scale 0 to 100 (0 no effect, 100 complete control)
How it was run: as §2

[10] = test system: barnyardgrass (Echinochloa crus-galli); assay: Test C flooded paddy test: barnyardgrass; conditions: scale 0 to 100 (0 no effect, 100 complete control)
How it was run: as §2

[11] = 125 g ai/ha, 0 to 100 scale, 0 is no effect, 100 is complete control
[12] = 500 g ai/ha, visual rating on 0 to 100 scale (0 no effect, 100 complete control), approximately ten days
[13] = 125 g ai/ha, 0 to 100 scale (0 no effect, 100 complete control)
[14] = 500 g ai/ha, 0 to 100 scale, 0 is no effect, 100 is complete control
[15] = 125 g ai/ha, 0 to 100 scale where 0 is no effect and 100 is complete control
[16] = Flood (flooded paddy test), 125 g ai/ha, visual rating after 13 to 15 days
[17] = Flood (flooded paddy test), 250 g ai/ha, visual rating after 13 to 15 days
[18] = Flood (flooded paddy test), 62 g ai/ha, visual rating after 13 to 15 days

CCc1nn(-c2ccc(C(F)(F)F)cn2)nc1Cc1cccc(C(F)(F)F)c1 [Compound 108] was tested, and the “Barnyardgrass plant response rating” value [1, 11] was 40, the “Barnyardgrass plant response rating” value [1, 12] was 70 and the “Plant response rating, Barnyardgrass” value [1, 13] was 30. The “Plant response rating, Barnyardgrass” value [1, 14] was 80, the “Crabgrass, Large plant response rating” value [2, 11] was 90 and the “Crabgrass, Large plant response rating” value [2, 12] was 90. For the same compound, the “Plant response rating, Crabgrass, Large” value [2, 13] was 90, the “Plant response rating, Crabgrass, Large” value [2, 14] was 100 and the “Foxtail, Giant plant response rating” value [3, 11] was 60. For the same compound, the “Foxtail, Giant plant response rating” value [3, 12] was 90, the “Plant response rating, Foxtail, Giant” value [3, 15] was 80 and the “Plant response rating, Foxtail, Giant” value [3, 14] was 100. The “Morningglory plant response rating” value [4, 11] was 100, the “Morningglory plant response rating” value [4, 12] was 100 and the “Plant response rating, Morningglory” value [4, 15] was 0. The “Plant response rating, Morningglory” value [4, 14] was 20, the “Pigweed plant response rating” value [5, 11] was 90 and the “Pigweed plant response rating” value [5, 12] was 100. The “Plant response rating, Pigweed” value [5, 15] was 80, the “Plant response rating, Pigweed” value [5, 14] was 100 and the “Velvetleaf plant response rating” value [6, 11] was 60. For the same compound, the “Velvetleaf plant response rating” value [6, 12] was 80, the “Plant response rating, Velvetleaf” value [6, 15] was 0 and the “Plant response rating, Velvetleaf” value [6, 14] was 20. The “Wheat plant response rating” value [7, 11] was 20, the “Wheat plant response rating” value [7, 12] was 30 and the “Plant response rating, Wheat” value [7, 15] was 0. For the same compound, the “Plant response rating, Wheat” value [7, 14] was 0, the “Corn plant response rating” value (corn (Zea mays); [11]) was 20 and the “Corn plant response rating” value (corn (Zea mays); [12]) was 30. The “Plant response rating, Corn” value (corn (Zea mays); [13]) was 0, the “Plant response rating, Corn” value (corn (Zea mays); [14]) was 0 and the “Plant response rating, Rice” value (rice (Oryza sativa); [16]) was 15. The “Plant response rating, Rice” value (rice (Oryza sativa); [17]) was 20, the “Plant response rating, Rice” value (rice (Oryza sativa); Flood, 31 g ai/ha) was 0 and the “Plant response rating, Rice” value (rice (Oryza sativa); Flood, 62 g ai/ha) was 0. For the same compound, the “Plant response rating, Sedge, Umbrella” value [8, 16] was 75, the “Plant response rating, Sedge, Umbrella” value [8, 17] was 85 and the “Plant response rating, Sedge, Umbrella” value ([8]; Flood, 31 g ai/ha) was 20. For the same compound, the “Plant response rating, Sedge, Umbrella” value ([8]; Flood, 62 g ai/ha) was 20, the “Plant response rating, Ducksalad” value [9, 16] was 30 and the “Plant response rating, Ducksalad” value [9, 17] was 45. The “Plant response rating, Ducksalad” value ([9]; Flood, 31 g ai/ha) was 0, the “Plant response rating, Ducksalad” value ([9]; Flood, 62 g ai/ha) was 0 and the “Plant response rating, Barnyardgrass” value [10, 16] was 20. For the same compound, the “Plant response rating, Barnyardgrass” value [10, 17] was 30, the “Plant response rating, Barnyardgrass” value ([10]; Flood, 31 g ai/ha) was 0 and the “Plant response rating, Barnyardgrass” value ([10]; Flood, 62 g ai/ha) was 0.

Cc1nn(-c2cccc(C(F)(F)F)n2)nc1C(=O)c1cccc(C(F)(F)F)c1 [Compound 57] was tested, and the “Barnyardgrass plant response rating” value [1, 11] was 0, the “Barnyardgrass plant response rating” value [1, 12] was 0 and the “Plant response rating, Barnyardgrass” value [1, 13] was 0. For the same compound, the “Plant response rating, Barnyardgrass” value [1, 14] was 0, the “Crabgrass, Large plant response rating” value [2, 11] was 0 and the “Crabgrass, Large plant response rating” value [2, 12] was 10. For the same compound, the “Plant response rating, Crabgrass, Large” value [2, 13] was 0, the “Plant response rating, Crabgrass, Large” value [2, 14] was 0 and the “Foxtail, Giant plant response rating” value [3, 11] was 0. For the same compound, the “Foxtail, Giant plant response rating” value [3, 12] was 0, the “Plant response rating, Foxtail, Giant” value [3, 13] was 0 and the “Plant response rating, Foxtail, Giant” value [3, 14] was 0. For the same compound, the “Morningglory plant response rating” value [4, 11] was 0, the “Morningglory plant response rating” value [4, 12] was 0 and the “Plant response rating, Morningglory” value [4, 13] was 0. For the same compound, the “Plant response rating, Morningglory” value [4, 14] was 0, the “Pigweed plant response rating” value [5, 11] was 0 and the “Pigweed plant response rating” value [5, 12] was 10. The “Plant response rating, Pigweed” value [5, 13] was 0, the “Plant response rating, Pigweed” value [5, 14] was 0 and the “Velvetleaf plant response rating” value [6, 11] was 0. The “Velvetleaf plant response rating” value [6, 12] was 0, the “Plant response rating, Velvetleaf” value [6, 13] was 0 and the “Plant response rating, Velvetleaf” value [6, 14] was 0. The “Wheat plant response rating” value [7, 11] was 0, the “Wheat plant response rating” value [7, 12] was 0 and the “Plant response rating, Wheat” value [7, 13] was 0. For the same compound, the “Plant response rating, Wheat” value [7, 14] was 0, the “Corn plant response rating” value (corn (Zea mays); [11]) was 0 and the “Corn plant response rating” value (corn (Zea mays); [12]) was 0. The “Plant response rating, Corn” value (corn (Zea mays); [13]) was 0, the “Plant response rating, Corn” value (corn (Zea mays); [14]) was 0 and the “Plant response rating, Rice” value (rice (Oryza sativa); [18]) was 0. The “Plant response rating, Rice” value (rice (Oryza sativa); [16]) was 0, the “Plant response rating, Rice” value (rice (Oryza sativa); [17]) was 0 and the “Plant response rating, Rice” value (rice (Oryza sativa); Flood, 31 g ai/ha) was 0. The “Plant response rating, Sedge, Umbrella” value [8, 18] was 0, the “Plant response rating, Sedge, Umbrella” value [8, 16] was 0 and the “Plant response rating, Sedge, Umbrella” value [8, 17] was 0. The “Plant response rating, Sedge, Umbrella” value ([8]; Flood, 31 g ai/ha) was 0, the “Plant response rating, Ducksalad” value [9, 18] was 0 and the “Plant response rating, Ducksalad” value [9, 16] was 0. The “Plant response rating, Ducksalad” value [9, 17] was 0, the “Plant response rating, Ducksalad” value ([9]; Flood, 31 g ai/ha) was 0 and the “Plant response rating, Barnyardgrass” value [10, 18] was 0. The “Plant response rating, Barnyardgrass” value [10, 16] was 0, the “Plant response rating, Barnyardgrass” value [10, 17] was 0 and the “Plant response rating, Barnyardgrass” value ([10]; Flood, 31 g ai/ha) was 0.
